These compounds were tested on Bacillus subtilis (assay: Agar diffusion antimicrobial test, Bacillus subtilis). Settings: Gram+ve, modified Kirby–Bauer disk diffusion, 10 µg/mL.
Type: cell-based
Method: (§1) The newly synthesized compounds 3–12 were tested for their preliminary antimicrobial activity against different microorganisms representing Gram-positive (Bacillus subtilis, Bacillus aureus and Staphylococcus aureus), Gram-negative bacteria (Escherichia coli), yeast (Candida albican) and fungi (Aspergillus niger).
(§2) The antimicrobial activities of the synthesized compounds were determined by the agar diffusion method as recommended by the national committee for clinical laboratory standards (NCCLS). The concentrations of the tested compounds (10 µg/mL) were used according to modified Kirby–Bauer’s disk diffusion method. The degree of inhibition is measured in comparison with that of chloramphinicol and fusidic acid taken as standards.

**Q.** For `CC(C)C[C@H](NC(=O)c1cncc(C(=O)N[C@@H](CC(C)C)C(=O)NN2C(=O)c3ccccc3C2=O)c1)C(=O)NN1C(=O)c2ccccc2C1=O` [Compound 7a], which “Inhibition Zome, Bacillus subtilis” value is on record?
**A.** Its value is 1.55 cm.

**Q.** `C/C(=N\NC(=O)[C@H](CC(C)C)NC(=O)c1cncc(C(=O)N[C@@H](CC(C)C)C(=O)N/N=C(\C)c2ccc(Cl)cc2)c1)c1ccc(Cl)cc1` [Compound 9a] was tested. Which “Inhibition Zome, Bacillus subtilis” value did it give?
**A.** Its value is 1.84 cm.

The compounds below were run on Bacillus aureus (assay: Agar diffusion antimicrobial test, Bacillus aureus). Settings: Gram+ve, modified Kirby–Bauer disk diffusion, 10 µg/mL.
Type: cell-based
Method: as §1, §2

**Q.** `CC(C)C[C@H](NC(=O)c1cncc(C(=O)N[C@@H](CC(C)C)C(=O)NN2C(=O)c3ccccc3C2=O)c1)C(=O)NN1C(=O)c2ccccc2C1=O` [Compound 7a] was tested. Which “Inhibition Zome, Bacillus aureus” value did it give?
**A.** The value was 1.84 cm.

**Q.** With `C/C(=N\NC(=O)[C@H](CC(C)C)NC(=O)c1cncc(C(=O)N[C@@H](CC(C)C)C(=O)N/N=C(\C)c2ccc(Cl)cc2)c1)c1ccc(Cl)cc1` [Compound 9a] as the compound, how does the “Inhibition Zome, Bacillus aureus” value read?
**A.** Its value is 1.88 cm.

Each compound was assayed on Staphylococcus aureus (assay: Agar diffusion antimicrobial test, Staphylococcus aureus). Settings: Gram+ve, modified Kirby–Bauer disk diffusion, 10 µg/mL.
Type: cell-based
Method: as §1, §2

**Q.** `CC(C)C[C@H](NC(=O)c1cncc(C(=O)N[C@@H](CC(C)C)C(=O)NN2C(=O)c3ccccc3C2=O)c1)C(=O)NN1C(=O)c2ccccc2C1=O` [Compound 7a] was tested. Which “Inhibition Zome, Staphylococcus aureus” value did it give?
**A.** The value was 1.58 cm.

**Q.** For `C/C(=N\NC(=O)[C@H](CC(C)C)NC(=O)c1cncc(C(=O)N[C@@H](CC(C)C)C(=O)N/N=C(\C)c2ccc(Cl)cc2)c1)c1ccc(Cl)cc1` [Compound 9a], which “Inhibition Zome, Staphylococcus aureus” value is on record?
**A.** Its value is 1.76 cm.

What follows are compounds tested on Escherichia coli (assay: Agar diffusion antimicrobial test, Escherichia coli). Settings: Gram−ve, modified Kirby–Bauer disk diffusion, 10 µg/mL.
Type: cell-based
Method: as §1, §2

**Q.** How did the “Inhibition Zome, Escherichia coli” value turn out when `CC(C)C[C@H](NC(=O)c1cncc(C(=O)N[C@@H](CC(C)C)C(=O)NN2C(=O)c3ccccc3C2=O)c1)C(=O)NN1C(=O)c2ccccc2C1=O` [Compound 7a] was run?
**A.** The value was 0.75 cm.

**Q.** `C/C(=N\NC(=O)[C@H](CC(C)C)NC(=O)c1cncc(C(=O)N[C@@H](CC(C)C)C(=O)N/N=C(\C)c2ccc(Cl)cc2)c1)c1ccc(Cl)cc1` [Compound 9a] was tested. Which “Inhibition Zome, Escherichia coli” value did it give?
**A.** The value was 0.92 cm.

What follows are compounds tested on Candida albicans (assay: Agar diffusion antimicrobial test, Candida albicans). Settings: Yeast, modified Kirby–Bauer disk diffusion, 10 µg/mL.
Type: cell-based
Method: as §1, §2

**Q.** For `CC(C)C[C@H](NC(=O)c1cncc(C(=O)N[C@@H](CC(C)C)C(=O)NN2C(=O)c3ccccc3C2=O)c1)C(=O)NN1C(=O)c2ccccc2C1=O` [Compound 7a], which “Inhibition Zome, Candida albicans” value is on record?
**A.** The value was 1.02 cm.

**Q.** For `C/C(=N\NC(=O)[C@H](CC(C)C)NC(=O)c1cncc(C(=O)N[C@@H](CC(C)C)C(=O)N/N=C(\C)c2ccc(Cl)cc2)c1)c1ccc(Cl)cc1` [Compound 9a], which “Inhibition Zome, Candida albicans” value is on record?
**A.** The value was 1.10 cm.

What follows are compounds tested on Aspergillus niger (assay: Agar diffusion antimicrobial test, Aspergillus niger). Settings: Fungi, modified Kirby–Bauer disk diffusion, 10 µg/mL.
Type: cell-based
Method: as §1, §2

**Q.** For `CC(C)C[C@H](NC(=O)c1cncc(C(=O)N[C@@H](CC(C)C)C(=O)NN2C(=O)c3ccccc3C2=O)c1)C(=O)NN1C(=O)c2ccccc2C1=O` [Compound 7a], which “Inhibition Zome, Aspergillus niger” value is on record?
**A.** The value was 1.64 cm.

**Q.** With `C/C(=N\NC(=O)[C@H](CC(C)C)NC(=O)c1cncc(C(=O)N[C@@H](CC(C)C)C(=O)N/N=C(\C)c2ccc(Cl)cc2)c1)c1ccc(Cl)cc1` [Compound 9a] as the compound, how does the “Inhibition Zome, Aspergillus niger” value read?
**A.** The value was 2.01 cm.

These compounds were tested on carrageenan-induced edema (assay: Carrageenan-induced edema (rat paw test)). Settings: dose 2.5 mg/kg oral, one hour before carrageenan; male albino rats, eight animals per group; paws excised four hours after drug administration.
Type: in vivo
Method: (§3) For the determination of the antiphlogistic potency of the synthesized compounds, two standard tests were realized at a dose level 2.5 and 5 mg/kg body weight of the rats, namely the protection against carrageenan-induced edema according to Winter et al. and the inhibition of plasma PGE2. The latter is known as a good confirming indicator for carrageenan-induced rat paw edema. […] For these compounds, a similar activity profile was realized for the inhibition of plasma PGE2.
(§4) Groups of adult male albino rats (150–180 g), each of eight animals were orally dosed with tested compounds at a dose level of 2.5–5 mg/kg one hour before carrageenan challenge. Foot paw edema was induced by subplantar injection of 0.05 cm^3 of a 1% suspension of carrageenan in saline into the plantar tissue of one hind paw. An equal volume of saline was injected to the other hand paw and served as control. Four hours after drug administration the animals were decapitated, blood was collected, and the paws were rapidly excised. The average weight of edema was examined for the treated as well as the control group and the percentage inhibition of weight of edema was also evaluated. Diclofenac potassium (5 mg/kg) was employed as standard reference against which the tested compounds were compared (Table 2).

**Q.** With `CC(C)C[C@H](NC(=O)c1cncc(C(=O)N[C@@H](CC(C)C)C(=O)NN2C(=O)c3ccccc3C2=O)c1)C(=O)NN1C(=O)c2ccccc2C1=O` [Compound 7a] as the compound, how does the “% Protection against Edema” value read?
**A.** The value was 97.45 ± 0.054%.

**Q.** `C/C(=N\NC(=O)[C@H](CC(C)C)NC(=O)c1cncc(C(=O)N[C@@H](CC(C)C)C(=O)N/N=C(\C)c2ccc(Cl)cc2)c1)c1ccc(Cl)cc1` [Compound 9a] was tested. Which “% Protection against Edema” value did it give?
**A.** The value was 82.16 ± 0.076%.

Same assay, conditions: dose 5.0 mg/kg oral, one hour before carrageenan; male albino rats, eight animals per group; paws excised four hours after drug administration

**Q.** For `CC(C)C[C@H](NC(=O)c1cncc(C(=O)N[C@@H](CC(C)C)C(=O)NN2C(=O)c3ccccc3C2=O)c1)C(=O)NN1C(=O)c2ccccc2C1=O` [Compound 7a], which “% Protection against Edema” value is on record?
**A.** The value was 98.86 ± 0.046%.

**Q.** For `C/C(=N\NC(=O)[C@H](CC(C)C)NC(=O)c1cncc(C(=O)N[C@@H](CC(C)C)C(=O)N/N=C(\C)c2ccc(Cl)cc2)c1)c1ccc(Cl)cc1` [Compound 9a], which “% Protection against Edema” value is on record?
**A.** Its value is 93.16 ± 0.064%.

These compounds were tested on plasma PGE2 (assay: Inhibition of plasma PGE2 (EIA) in carrageenan-challenged rats). Settings: dose 2.5 mg/kg oral; rats n = 8; blood four hours after drug administration; PGE2 EIA kit.
Type: in vivo, rat
Method: as §3, §4
Heparinized blood samples were collected from rats (n = 8), plasma was separated by centrifugation at 12,000 g for 2 min at […], immediately frozen, and stored at […] until use. The design correlate EIA prostaglandin E2 (PGE2) kit (Aldrich, Steinheim, Germany) is a competitive immuno assay for the quantitative determination of PGE2 in biological fluids. The kit uses a monoclonal antibody to PGE2 to bind, in a competitive manner, the PGE2 in the sample after a simultaneous incubation at room temperature. The excess reagents were washed away and the substrate was added, after a short incubation time the enzyme reaction was stopped, and the yellow color generated was read on a microplate reader DYNATech, MR 5000 at 405 nm (Dynatech Industries Inc., McLean, VA, USA). The intensity of the bound yellow color is inversely proportional to the concentration of PGE2 in either standard or samples.

**Q.** How did the “% Inhibition of Plasma PGE2” value turn out when `CC(C)C[C@H](NC(=O)c1cncc(C(=O)N[C@@H](CC(C)C)C(=O)NN2C(=O)c3ccccc3C2=O)c1)C(=O)NN1C(=O)c2ccccc2C1=O` [Compound 7a] was run?
**A.** The value was 81.30 ± 0.044%.

**Q.** Which “% Inhibition of Plasma PGE2” value does the source give for `C/C(=N\NC(=O)[C@H](CC(C)C)NC(=O)c1cncc(C(=O)N[C@@H](CC(C)C)C(=O)N/N=C(\C)c2ccc(Cl)cc2)c1)c1ccc(Cl)cc1` [Compound 9a] here?
**A.** Its value is 58.96 ± 0.024%.

Same assay, conditions: dose 5.0 mg/kg oral; rats n = 8; blood four hours after drug administration; PGE2 EIA kit

**Q.** `CC(C)C[C@H](NC(=O)c1cncc(C(=O)N[C@@H](CC(C)C)C(=O)NN2C(=O)c3ccccc3C2=O)c1)C(=O)NN1C(=O)c2ccccc2C1=O` [Compound 7a] was tested. Which “% Inhibition of Plasma PGE2” value did it give?
**A.** The value was 82.48 ± 0.052%.

**Q.** Which “% Inhibition of Plasma PGE2” value does the source give for `C/C(=N\NC(=O)[C@H](CC(C)C)NC(=O)c1cncc(C(=O)N[C@@H](CC(C)C)C(=O)N/N=C(\C)c2ccc(Cl)cc2)c1)c1ccc(Cl)cc1` [Compound 9a] here?
**A.** The value was 74.58 ± 0.040%.

— PMC6271395, “Synthesis and Biological Activities of Some New (N^α-Dinicotinoyl)-bis-L-Leucyl Linear and Macrocyclic Peptides” (Molecules, 2014)
